Data on 1 compound can be found in US20120004205A1, “IL-13 INDUCED GENE SIGNATURE FOR EOSINOPHILIC ESOPHAGITIS” (Cincinnati Children's Hospital Medical Center, priority 2008, published 2012).

SMILES strings stand for the structures.

For one experiment, the system named is IL-13 mRNA. Nature of the experiment: IL-13 mRNA in esophageal biopsy specimens of FP-treated EE patients, real-time PCR. As to conditions: patients with EE treated successfully with FP. Format: in vivo, human. The protocol: (§1) For each patient, one distal esophageal mucosal biopsy sample was immersed in RNA, later RNA stabilization reagent (Qiagen) and stored at 4 C. for <15 days. Total RNA was extracted using the RNAeasy Mini Kit (Qiagen) according to the manufacturer's recommendations. Hybridization to DNA microarray was performed by the MicroarrayCore at Cincinnati Children's Hospital Medical Center, as previously reported Blanchard, C. et al., (2006) J. Clin. Invest. 116: 536-547. The genome wide human Affymetrix U133A plus 2.0 Genechip® was used, and gene transcript levels were determined using algorithms in the Microarray Analysis Suite and GeneSpring software (Silicon Genetics) as previously described Blanchard, C. et al., (2006) J. Clin. Invest. 116: 536-547. […] Response to therapy was defined as <1 eosinophils/high power field (hpf) and no epithelial cell hyperplasia as described herein.
(§2) (rev) […]; IL-13R2 (396 bp): (fwd): […] (rev) […]; IL-4Rα (335 bp): (fwd): […]
(§3) Wood, N. et al., (2003) J. Exp. Med. 197: 703-709. In patients with EE with successful anti-inflammatory intervention, IL-13 overexperssion can be normalized. […] Similarly, eotaxin-3 mRNA was normalized in FP-responder patients (P<0.01; FIG. 6B). […] Remarkably, 98% of the EE transcriptome was reversed to expression levels detected in biopsy specimens of healthy patients (FIG. 6C). […]
(In qPCR the cycle at which signal appears reflects the starting amount.)

Another experiment concerns eotaxin-3 mRNA. The experiment can be described thus: Eotaxin-3 mRNA in esophageal biopsy specimens of FP-treated EE patients, real-time PCR. The following applies: P<0.01. Format: in vivo, human. The method, then: as §1, §2, §3
A further experiment has as its system EE transcriptome. Nature of the experiment: Microarray analysis of the EE transcriptome in successfully treated EE patients. Type of experiment: in vivo, human. The method, then:
as §1, with “herein. […] Wood, N. et al., (2003) J. Exp. Med. 197: 703-709. In patients with EE with successful anti-inflammatory intervention, IL-13 overexperssion can be normalized. […] Similarly, eotaxin-3 mRNA was normalized in FP-responder patients (P<0.01; FIG. 6B). […] Remarkably, 98% of the EE transcriptome was reversed to expression levels detected in biopsy specimens of healthy patients (FIG. 6C). […]” for “herein.”

The test system of a further experiment is cadherin-26 (CDH26). The experiment can be described thus: Cadherin-26 expression in FP-treated EE patients, real-time PCR. Format: in vivo, human. The following applies: P<0.05.
Source text: as §2
Wood, N. et al., (2003) J. Exp. Med. 197: 703-709. In patients with EE with successful anti-inflammatory intervention, IL-13 overexperssion can be normalized. […] Similarly, eotaxin-3 mRNA was normalized in FP-responder patients (P<0.01; FIG. 6B). The research next aimed to determine whether the EE transcriptome was also reversible in patients with EE successfully treated with glucocorticoids. Remarkably, 98% of the EE transcriptome was reversed to expression levels detected in biopsy specimens of healthy patients (FIG. 6C). The reversible genes include cell-specific transcripts, including eosinophil, mast cell, lymphocyte, fibroblast, and epithelial genes. In addition, genes involved in cellular recruitment and cell proliferation were also reversible. Although the biopsy specimens had no abnormal microscopic features, 12 genes were still dysregulated (FIG. 6B).

For a further experiment, the system named is patients with EE. As to conditions: in vivo; cited from earlier work.

As for `CCC(=O)O[C@]1(C(=O)SCF)[C@H](C)C[C@H]2[C@@H]3C[C@H](F)C4=CC(=O)C=C[C@]4(C)[C@@]3(F)[C@@H](O)C[C@@]21C` [FP, S-fluoromethyl-6α,9-difluoro-11β-hydroxy-16α-methyl-3-oxo androsta-1,4-diene-17β-carbothioate, 17-propionate], in the experiment with IL-13 mRNA, the “IL-13 mRNA levels in EE responders compared with untreated specimens” value is reported as “significantly (P<0.01) reduced”. For the same compound, the “eotaxin-3 mRNA in FP-responder patients” value with eotaxin-3 mRNA was “normalized”. In addition, the “EE transcriptome reversed to expression levels of healthy patients” value in the experiment on EE transcriptome (patients with EE successfully treated with glucocorticoids) worked out at 98%. Moreover, the “genes still dysregulated after treatment” value in the experiment with EE transcriptome (successfully treated EE patients, fold change filter 2) was found to be 12 genes. The “cadherin-26 expression in FP-treated patients with EE” value in the experiment with cadherin-26 (CDH26) is reported as “residual upregulation”. In the experiment on patients with EE, the “EE disease remission compared with placebo treatment” value is “induces EE disease remission”.
